# Test results: patent publication US20230312528A1, “2-OXO-IMIDAZOLIDINE-4-CARBOXAMIDES AS NAV1.8 INHIBITORS” (Merck Sharp & Dohme LLC, priority 2020, published 2023)
# Target: human NaV1.8 (Homo sapiens (Human), UniProt Q9Y5Y9)
# Assay: Nav1.8 Qube automated patch-clamp assay
# Assay type: cell-based
# Settings: human NaV1.8 stably expressed in HEK 293 cells; automated 384-well patch-clamp; resting or inactivated state not specified
# Experimental: Compounds were tested on human NaV1.8 and NaV1.5 channels stably expressed in human embryo kidney (HEK) 293 cells. Sodium current measurements on Qube® were conducted as follows: automated 384-well patch-clamp assays on the Qube® platform (Sophion Biosciences) were used to measure the inhibition of sodium flow through human NaV1.8 and NaV1.5 channels. Whole-cell voltage-clamp recordings were performed in QChips® (Sophion Biosciences) at room temperature. NaV1.8 current measurements on Qube® were obtained as follows: NaV1.8 currents were elicited with a 10 second 1 Hertz (Hz) pulse train from a holding potential of −90 millivolts (mV), delivered to the cells once per minute in the control condition (DMSO only) and after compound addition. The 1 hertz pulse train stimulation consisted of ten test pulses to 10 millivolt (mV) for 20 milliseconds (ms), each of which was followed by a 980 millisecond repolarization to −67 millivolts. At the end of the 10 second pulse train stimulation, a 5 second hyperpolarization step to −100 millivolt (mV) was used to recover NaV1.8 from fast inactivation. The peak currents elicited by the 1st and 10th test pulses were used to determine IC50 values for resting inhibition and inactivated state inhibition. NaV1.5 current measurements on Qube® were obtained as follows: NaV1.5 currents were elicited with a 20 second 3 Hertz pulse train in the control condition (DMSO only) and after compound addition. The pulse train consisted of sixty 20 millisecond test pulses to 0 millivolt from a holding potential of −80 millivolt (mV). The average peak currents elicited by the last 3 test pulses were used to determine IC50 values for NaV1.5 inhibition.
# The following buffers were used for the Qube® recordings: External buffer for NaV1.8 Qube® recording: 150 NaCl, 2 CaCl2, 5 KCl, 1 Mg Cl2, 10 HEPES, 12 Dextrose; External buffer for Qube® NaV1.5 recording: 120 N-Methyl-D-Glucamine, 40 NaCl, 1 KCl, 2.7 CaCl2, 5 HEPES, 0.5 MgCl2; and Internal buffer for Qube® recording: 120 CsF, 30 CsCl, 10 EGTA, 5 HEPES, 5 NaF, 2 MgCl2.
# For all Qube® experiments offline analysis was used to determine percent inhibition as a function of drug concentration. IC50 values were determined by fitting to the Hill equation.
# human NaV1.8, sequence (Q9Y5Y9 whole entry): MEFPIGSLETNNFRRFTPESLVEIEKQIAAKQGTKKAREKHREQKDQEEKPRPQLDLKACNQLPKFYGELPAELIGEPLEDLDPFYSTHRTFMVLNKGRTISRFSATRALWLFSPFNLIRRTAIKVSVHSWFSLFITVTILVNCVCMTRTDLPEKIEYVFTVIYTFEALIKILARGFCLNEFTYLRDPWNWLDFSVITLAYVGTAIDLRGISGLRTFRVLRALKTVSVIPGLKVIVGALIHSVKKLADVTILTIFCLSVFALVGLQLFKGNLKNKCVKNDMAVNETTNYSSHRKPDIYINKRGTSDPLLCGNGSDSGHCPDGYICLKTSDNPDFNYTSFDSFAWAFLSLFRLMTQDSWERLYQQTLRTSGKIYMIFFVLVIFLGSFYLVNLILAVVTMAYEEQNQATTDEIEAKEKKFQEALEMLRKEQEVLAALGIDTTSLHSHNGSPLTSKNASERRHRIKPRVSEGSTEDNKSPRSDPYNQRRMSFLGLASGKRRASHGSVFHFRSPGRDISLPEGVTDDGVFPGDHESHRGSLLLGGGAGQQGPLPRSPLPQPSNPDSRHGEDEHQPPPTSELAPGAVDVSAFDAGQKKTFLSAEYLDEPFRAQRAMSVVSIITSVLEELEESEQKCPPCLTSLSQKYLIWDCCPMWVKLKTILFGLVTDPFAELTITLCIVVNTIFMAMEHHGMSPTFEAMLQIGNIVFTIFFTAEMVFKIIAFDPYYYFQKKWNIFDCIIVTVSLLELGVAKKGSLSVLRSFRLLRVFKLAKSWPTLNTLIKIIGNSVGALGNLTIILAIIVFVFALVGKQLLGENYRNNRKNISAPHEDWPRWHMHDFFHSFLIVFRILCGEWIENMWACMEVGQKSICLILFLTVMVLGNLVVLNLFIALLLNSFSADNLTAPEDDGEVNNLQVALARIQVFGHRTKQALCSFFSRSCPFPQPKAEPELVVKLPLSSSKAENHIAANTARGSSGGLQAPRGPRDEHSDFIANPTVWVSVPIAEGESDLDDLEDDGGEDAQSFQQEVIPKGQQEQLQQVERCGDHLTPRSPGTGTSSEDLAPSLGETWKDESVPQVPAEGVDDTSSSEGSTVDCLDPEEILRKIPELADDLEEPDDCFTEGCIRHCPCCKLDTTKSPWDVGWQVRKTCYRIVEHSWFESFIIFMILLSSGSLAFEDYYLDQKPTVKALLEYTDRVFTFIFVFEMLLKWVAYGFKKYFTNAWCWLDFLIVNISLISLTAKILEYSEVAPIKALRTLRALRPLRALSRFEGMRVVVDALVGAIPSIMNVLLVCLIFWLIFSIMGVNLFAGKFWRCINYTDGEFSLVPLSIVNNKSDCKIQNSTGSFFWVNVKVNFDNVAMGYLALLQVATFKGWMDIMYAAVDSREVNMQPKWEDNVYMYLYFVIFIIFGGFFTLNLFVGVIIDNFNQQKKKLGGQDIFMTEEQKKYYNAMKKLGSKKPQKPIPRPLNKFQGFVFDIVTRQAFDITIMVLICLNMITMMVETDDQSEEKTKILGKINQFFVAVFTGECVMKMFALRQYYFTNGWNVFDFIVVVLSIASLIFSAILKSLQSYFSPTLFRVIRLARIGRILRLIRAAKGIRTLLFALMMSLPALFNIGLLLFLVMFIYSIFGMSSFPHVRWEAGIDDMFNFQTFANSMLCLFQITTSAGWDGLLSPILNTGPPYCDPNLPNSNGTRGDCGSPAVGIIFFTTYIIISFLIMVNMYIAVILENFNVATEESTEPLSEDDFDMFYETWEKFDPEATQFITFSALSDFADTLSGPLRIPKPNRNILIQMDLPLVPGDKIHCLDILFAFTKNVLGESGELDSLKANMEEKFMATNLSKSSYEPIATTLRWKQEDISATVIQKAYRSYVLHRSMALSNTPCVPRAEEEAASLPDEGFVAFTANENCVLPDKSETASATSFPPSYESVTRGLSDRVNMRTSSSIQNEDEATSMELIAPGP
row,IC50 [nM],SMILES
1,15,"O=C1NC[C@@H](C(=O)NC(CC2CCC(C(F)(F)F)CC2)c2ccc(F)c(Cl)c2F)N1 (single isomer, unassigned) [Example 23A, (S)—N—((R or S)-1-(3-chloro-2,4-difluorophenyl)-2-((cis or trans)-4-(trifluoromethyl)cyclohexyl)ethyl)-2-oxoimidazolidine-4-carboxamide]"
2,67,"O=C1NC[C@@H](C(=O)NC(c2ccc(F)c(Cl)c2)[C@H]2CC[C@H](C(F)(F)F)CC2)N1 (single isomer, unassigned) [Example 32B, (4S)—N—((R or S)-(3-chloro-4-fluorophenyl)(trans-4-(trifluoro-methyl)cyclohexyl)methyl)-2-oxoimidazolidine-4-carboxamide]"
3,35,"Cc1nc(C(F)(F)F)sc1C(NC(=O)[C@@H]1CNC(=O)N1)c1ccc(Cl)cc1 (stereo partly drawn) [Example 76, (4S)-N-((4-chlorophenyl)(4-methyl-2-(trifluoro-methyl)thiazol-5-yl)methyl)-2-oxoimidazolidine-4-carboxamide]"
4,1.1,"O=C1NC[C@@H](C(=O)NC(c2ccc(OC(F)(F)F)cc2)c2ccc(F)c(C(F)(F)F)n2)N1 (single isomer, unassigned) [Example 7A, (S)—N—((R or S)-(5-fluoro-6-(trifluoromethyl)pyridin-2-yl)(4-(trifluoromethoxy)phenyl)-methyl)-2-oxoimidazolidine-4-carboxamide]"
5,22,"O=C1NC[C@@H](C(=O)NC(CC2CCC(F)(F)CC2)c2ccc(F)c(Cl)c2F)N1 (single isomer, unassigned) [Example 25A, (S)-N-((R or S)-1-(3-chloro-2,4-difluorophenyl)-2-(4,4-difluorocyclohexyl)ethyl)-2-oxoimidazolidine-4-carboxamide]"
6,76,"O=C1NC[C@@H](C(=O)NC(c2ccc(F)c(Cl)c2F)[C@H]2C[C@H](C(F)(F)F)C2)N1 (single isomer, unassigned) [Example 34B, (S)—N—((R or S)-(3-chloro-2,4-difluorophenyl)(trans-3-(trifluoromethyl)cyclobutyl)methyl)-2-oxoimidazolidine-4-carboxamide]"
7,2.5,"O=C1NC[C@@H](C(=O)NC(c2cnc(C(F)(F)F)c(Cl)c2)c2ccc(Cl)c(C(F)(F)F)n2)N1 (single isomer, unassigned) [Example 56A, (S)-N-((R or S)-(5-chloro-6-(trifluoromethyl)pyridin-2-yl)(5-chloro-6-(trifluoromethyl)pyridin-3-yl)methyl)-2-oxoimidazolidine-4-carboxamide]"
8,386,"O=C1NC[C@@H](C(=O)NC(CC2CCCOC2)c2ccc(F)c(Cl)c2F)N1 (single isomer, unassigned) [Example 26C, (S)-N-((R or S)-1-(3-chloro-2,4-difluorophenyl)-2-((R or S)-tetrahydro-2H-pyran-3-yl)ethyl)-2-oxoimidazolidine-4-carboxamide]"
9,125,"O=C1NC[C@@H](C(=O)NC(c2ccc(OC(F)(F)F)nc2)c2ccc(F)c(C(F)(F)F)n2)N1 (single isomer, unassigned) [Example 45B, (S)-N-((R or S)-(5-fluoro-6-(trifluoro-methyl)pyridin-2-yl)(6-(trifluoromethoxy)pyridin-3-yl)methyl)-2-oxoimidazolidine-4-carboxamide]"
10,458,"CC1(C)CC(C(NC(=O)[C@@H]2CNC(=O)N2)c2ccc(F)c(Cl)c2F)C1 (single isomer, unassigned) [Example 30B, (4S)-N-[(R or S)-(3-chloro-2,4-di-fluorophenyl)(3,3-dimethylcyclobutyl)meth-yl]-2-oxoimidazolidine-4-carboxamide]"
11,166,"O=C1NC[C@@H](C(=O)NC(c2cnc(OCC(F)(F)F)cn2)c2ccc(F)c(Cl)c2F)N1 (single isomer, unassigned) [Example 51B, N—((R or S)-(3-chloro-2,4-difluorophenyl)(5-(2,2,2-trifluoroethoxy)pyrazin-2-yl)methyl)-2-oxoimidazolidine-4-carboxamide]"
12,41,"O=C1NC[C@@H](C(=O)NC(c2ccc(OC(F)(F)F)nc2)c2ccc(F)c(Cl)c2F)N1 (single isomer, unassigned) [Example 24B, (4S)-N-{(R or S)-(3-chloro-2,4-difluorophenyl)[6-(trifluoromethoxy)pyridin-3-yl]methyl}-2-oxoimidazolidine-4-carboxamide]"
13,39,"O=C1NC[C@@H](C(=O)NC(c2ccc(OCC(F)(F)F)nc2)c2ccc(F)c(Cl)c2F)N1 (single isomer, unassigned) [Example 33B, (S)—N—((R or S)-(3-chloro-2,4-difluorophenyl)(6-(2,2,2-trifluoroethoxy)pyridin-3-yl)methyl)-2-oxoimidazolidine-4-carboxamide]"
14,1140,"O=C1NC[C@@H](C(=O)NC(c2ccc(F)c(Cl)c2F)[C@@H]2CC[C@@H](C(F)(F)F)CO2)N1 (single isomer, unassigned) [Example 8A, (S)—N—((R or S)-(3-chloro-2,4-difluorophenyl)((trans)-5-(trifluoromethyl)tetrahydro-2H-pyran-2-yl)methyl)-2-oxoimidazolidine-4-carboxamide]"
15,787,"O=C1NC[C@@H](C(=O)NC(c2ccc(F)c(Cl)c2F)C2CCCCN2CC(F)(F)F)N1 (single isomer, unassigned) [Example 58D, (S)-N-((R or S)-(3-chloro-2,4-difluorophenyl) ((R or S)-1-(2,2,2-trifluoroethyl)piperidin-2-yl)methyl)-2-oxoimidazolidine-4-carboxamide]"
16,9.7,"O=C1NC[C@@H](C(=O)NC(c2cnc(C(F)(F)F)c(Cl)c2)c2ccc(Cl)c(C(F)F)n2)N1 (single isomer, unassigned) [Example 3A, (S)—N—((R or S)-(5-chloro-6-(difluoromethyl)pyridin-2-yl)(5-chloro-6-(trifluoromethyl)pyridin-3-yl)methyl)-2-oxoimidazolidine-4-carboxamide]"
17,2,"O=C1NC[C@@H](C(=O)NC(c2ccc(OC(F)(F)F)cc2)c2cccc(Cl)c2)N1 (single isomer, unassigned) [Example 9B, (4S)—N—((R or S)-(3-chlorophenyl)(4-(trifluoromethoxy)-phenyl)methyl)-2-oxoimidazolidine-4-carboxamide]"
18,309,"CC(N1CC(C)(C(NC(=O)[C@@H]2CNC(=O)N2)c2ccc(F)c(Cl)c2F)C1)C(F)(F)F (single isomer, unassigned) [Example 65C, (S)—N—((R or S)-(3-chloro-2,4-difluorophenyl)(3-methyl-1-((R or S)-1,1,1-trifluoropropan-2-yl)azetidin-3-yl)methyl)-2-oxoimidazolidine-4-carboxamide]"
19,14,"O=C1NC[C@@H](C(=O)NC(c2ccc(F)c(Cl)c2)c2csc(C3(C(F)(F)F)CC3)n2)N1 (single isomer, unassigned) [Example 16B, (S)-N-((R or S)-(3-chloro-4-fluoro-phenyl)(2-(1-(trifluoromethyl)cyclopropyl)thiazol-4-yl)methyl)-2-oxoimidazolidine-4-carboxamide]"
20,45,"O=C1NC[C@@H](C(=O)NC(c2ccc(OCC(F)(F)F)nn2)c2ccc(F)c(Cl)c2F)N1 (single isomer, unassigned) [Example 50A, (4S)—N—((R or S)-(3-chloro-2,4-difluorophenyl)(6-(2,2,2-trifluoroethoxy)-pyridazin-3-yl)methyl)-2-oxoimidazolidine-4-carboxamide]"
21,190,"O=C1NC[C@@H](C(=O)NC(c2cnc(OC(F)F)c(F)c2)c2ccc(F)c(Cl)c2F)N1 (single isomer, unassigned) [Example 42, (S)-N-((R or S)-(3-chloro-2,4-difluorophenyl)(6-(difluoromethoxy)-5-fluoropyridin-3-yl)methyl)-2-oxoimidazolidine-4-carboxamide]"
22,3.2,"O=C1NC[C@@H](C(=O)NC(CC2CCCCC2)c2ccc(F)c(Cl)c2F)N1 (single isomer, unassigned) [Example 54A, (S)-N-((R or S)-1-(3-chloro-2,4-difluorophenyl)-2-cyclohexylethyl)-2-oxoimidazolidine-4-carboxamide]"

row,SMILES,IC50 [nM]
1,"CC1(C(=O)NC(c2ccc(Cl)cc2)c2ccc(Cl)cc2)NC(=O)NC1=O (single isomer, unassigned) [Example 20B, (R or S)—N-(bis(4-chlorophenyl)methyl)-4-methyl-2,5-dioxoimidazolidine-4-carboxamide]",9480
